Test results from patent US5270165A, “Method of diagnosis of amyloidoses” (The Reagents of the University of California, priority 1991, dated 1993).

Tested on: platelets
Assay: Secretion of PN-2/βAPP and granule markers from platelets after activation by agonists
Assay type: cell-based
Conditions: for PN-2/βAPP percent secreted / ADP/ATP percent secreted / LA-PF4 percent secreted / LDH loss (percent), marker of platelet lysis: collagen 20 μg/ml or thrombin 1 U/ml, 10 minutes; for fraction of total platelet PN-2/βAPP secreted on activation: freshly washed platelets
Procedure: Secretion of PN-2/βAPP from platelets after activation by the agonists collagen or thrombin was studied. Briefly, fresh platelets washed by albumin density gradient centrifugation and gel filtration were incubated for 30 minutes at 37° C. in the absence or presence of the combined metabolic inhibitors antimycin A (15 μg/ml), 2-deoxy-D-glucose (30 mM), and D-gluconic acid δ-lactone (10 mM). The platelets were then placed into a cuvette 37° C. water bath with stirring at 1,200 rpm, and collagen (20 μg/ml or .varies.-thrombin (1 U/ml) was added. After 10 minutes, the samples were centrifuged at 12,000 x g for 4 minutes and supernatants were collected. Aliquots were removed and quantitated for PN-2/βAPP by incubation with ^125 I-EGF BP and analysis of complex formation by SDS-PAGE and autoradiography as in Example 15. Autoradiograms were aligned with dried gels; ^125 I-EGF BP:PN-2/βAPP complexes were located, excised and quantitated in a […]. Aliquots were also quantitated for platelet markers as follows: total adenine nucleotide (ADP/ATP) secretion was measured by the method of Homsen et al., Anal. Biochem., 46:489 (1972); low affinity platelet factor 4 (LA-PF4) secretion was quantitated by the method of Rucinski et al., Blood, 53:47 (1979); and cytosolic lactate dehydrogenase (LDH) loss was assessed by the procedure of Wroblewski and Ladue, Proc. Soc. Exper. Biol. Med., 77:389 (1978), the disclosures of which are hereby incorporated by reference. Values represent the percent secreted. Percent secreted was determined from the ratio of releasate in agonist treated sample to the total amount present in detergent lysate; nonstimulated platelet supernatants were subtracted from both. Values expressed are the mean ±SEM of three experiments, each consisting of combined platelets from two donors.

[1] = Inhibitor-Treated Platelets (antimycin A, 2-deoxy-D-glucose, D-gluconic acid δ-lactone)
[2] = Inhibitor-Treated Platelets, mean ±SEM
[3] = Washed Platelets, 37° C., mean ±SEM of three experiments

Thrombin
PN-2/βAPP percent secreted [1]: 0%
ADP/ATP percent secreted [2]: 0%
LA-PF4 percent secreted [2]: 0.4 ± 0.4%
PN-2/βAPP percent secreted [3]: 53.7 ± 7.6%
ADP/ATP percent secreted (Washed Platelets, mean ±SEM): 68 ± 11%
LA-PF4 percent secreted (Washed Platelets, mean ±SEM): 69 ± 6.2%
LDH loss (percent), marker of platelet lysis (Washed Platelets, mean ±SEM): 0%
fraction of total platelet PN-2/βAPP secreted on activation: approximately one-half

Collagen
PN-2/βAPP percent secreted [1]: 0%
LDH loss (percent), marker of platelet lysis (Inhibitor-Treated Platelets): 0%
ADP/ATP percent secreted [2]: 1.3 ± 1.3%
LA-PF4 percent secreted [2]: 0%
PN-2/βAPP percent secreted [3]: 46.3 ± 7.7%
ADP/ATP percent secreted (Washed Platelets, mean ±SEM): 45 ± 16%
LA-PF4 percent secreted (Washed Platelets, mean ±SEM): 52 ± 11%
LDH loss (percent), marker of platelet lysis (Washed Platelets, mean ±SEM): 1.3 ± 1.3%
fraction of total platelet PN-2/βAPP secreted on activation: approximately one-half
